Results as given in ChEMBL document CHEMBL1138864, “Synthesis of novel caspase inhibitors for characterization of the active caspase proteome in vitro and in vivo” (J Med Chem, 2006).

Key:
Caspase-8 = Caspase-8 (Homo sapiens, UniProt Q14790); assay: Inhibition of human caspase 8
Caspase-7 = biological target: T1, Caspase-7 (Homo sapiens, UniProt P55210); assay: Inhibition of human caspase 7
T1 sequence (P55210 whole entry): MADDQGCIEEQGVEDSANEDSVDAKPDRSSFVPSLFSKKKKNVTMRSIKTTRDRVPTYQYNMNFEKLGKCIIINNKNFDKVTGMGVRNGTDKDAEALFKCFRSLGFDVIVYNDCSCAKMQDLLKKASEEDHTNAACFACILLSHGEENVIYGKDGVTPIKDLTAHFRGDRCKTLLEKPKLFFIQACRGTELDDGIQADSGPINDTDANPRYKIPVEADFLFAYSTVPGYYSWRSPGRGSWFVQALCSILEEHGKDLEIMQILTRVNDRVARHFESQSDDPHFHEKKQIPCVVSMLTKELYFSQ

Caspase-2 = biological target: T2, Caspase-2 (Homo sapiens, UniProt P42575); assay: Inhibition of human caspase 2
T2 sequence (P42575 whole entry): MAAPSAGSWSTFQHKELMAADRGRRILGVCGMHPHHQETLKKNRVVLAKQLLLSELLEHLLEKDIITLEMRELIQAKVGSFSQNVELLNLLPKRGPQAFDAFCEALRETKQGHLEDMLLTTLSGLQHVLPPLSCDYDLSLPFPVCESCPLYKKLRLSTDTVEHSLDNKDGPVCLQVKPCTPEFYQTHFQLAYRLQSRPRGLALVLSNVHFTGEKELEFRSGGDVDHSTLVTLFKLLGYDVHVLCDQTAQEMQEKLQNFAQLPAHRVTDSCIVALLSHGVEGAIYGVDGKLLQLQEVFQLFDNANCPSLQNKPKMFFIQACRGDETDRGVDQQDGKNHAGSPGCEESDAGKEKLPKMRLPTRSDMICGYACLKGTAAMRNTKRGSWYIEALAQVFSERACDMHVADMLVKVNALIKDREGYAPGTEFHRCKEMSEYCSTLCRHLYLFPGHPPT

Caspase-1 = biological target: T3, Caspase-1 (Homo sapiens, UniProt P29466); assay: Inhibition of human caspase 1
T3 sequence (P29466 whole entry): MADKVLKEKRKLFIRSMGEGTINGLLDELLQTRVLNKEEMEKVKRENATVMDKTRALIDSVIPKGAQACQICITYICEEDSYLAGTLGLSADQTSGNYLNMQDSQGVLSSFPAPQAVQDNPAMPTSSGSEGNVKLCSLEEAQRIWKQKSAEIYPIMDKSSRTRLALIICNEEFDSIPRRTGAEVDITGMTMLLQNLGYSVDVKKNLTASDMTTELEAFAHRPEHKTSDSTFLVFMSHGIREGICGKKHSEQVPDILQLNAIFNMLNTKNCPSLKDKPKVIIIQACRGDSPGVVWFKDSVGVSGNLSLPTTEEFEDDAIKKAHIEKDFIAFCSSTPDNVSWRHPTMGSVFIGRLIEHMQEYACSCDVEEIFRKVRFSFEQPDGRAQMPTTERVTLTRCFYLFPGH

Caspase-6 = biological target: T4, Caspase-6 (Homo sapiens, UniProt P55212); assay: Inhibition of human caspase 6
T4 sequence (P55212 whole entry): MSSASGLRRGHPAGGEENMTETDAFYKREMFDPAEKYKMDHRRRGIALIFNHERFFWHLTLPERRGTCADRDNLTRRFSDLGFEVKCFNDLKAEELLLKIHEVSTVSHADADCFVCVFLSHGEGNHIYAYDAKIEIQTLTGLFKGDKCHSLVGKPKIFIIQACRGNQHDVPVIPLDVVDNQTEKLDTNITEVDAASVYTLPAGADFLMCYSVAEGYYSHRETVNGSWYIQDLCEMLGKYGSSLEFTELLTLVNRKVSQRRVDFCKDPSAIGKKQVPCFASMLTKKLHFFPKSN

Caspase-3 = biological target: T5, Caspase-3 (Homo sapiens, UniProt P42574); assay: Inhibition of human caspase 3
T5 sequence (P42574 whole entry): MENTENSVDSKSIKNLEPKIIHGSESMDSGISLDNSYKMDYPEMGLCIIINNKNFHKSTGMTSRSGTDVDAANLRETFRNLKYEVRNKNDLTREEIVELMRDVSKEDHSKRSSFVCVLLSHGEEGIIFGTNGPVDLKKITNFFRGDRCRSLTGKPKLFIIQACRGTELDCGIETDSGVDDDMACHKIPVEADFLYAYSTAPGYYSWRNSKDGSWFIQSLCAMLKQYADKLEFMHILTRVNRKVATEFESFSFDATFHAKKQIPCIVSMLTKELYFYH

Caspase-8, sequence (Q14790 217-374 limits assumed): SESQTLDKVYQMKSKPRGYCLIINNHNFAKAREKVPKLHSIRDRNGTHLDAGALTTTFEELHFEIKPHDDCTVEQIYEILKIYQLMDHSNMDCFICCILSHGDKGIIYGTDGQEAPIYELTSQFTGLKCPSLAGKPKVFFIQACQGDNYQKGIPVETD
Caspase-8, sequence (Q14790 385-479 limits assumed): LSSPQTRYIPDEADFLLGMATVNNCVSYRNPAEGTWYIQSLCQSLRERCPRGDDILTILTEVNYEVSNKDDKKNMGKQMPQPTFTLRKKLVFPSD

In the case of `Cc1cccc(C)c1C(=O)OCC(=O)[C@H](CC(=O)O)NC(=O)[C@H](CCCCNC(=O)CCCCCNC(=O)CCCCC1SC[C@@H]2NC(=O)N[C@H]12)NC(=O)[C@H](CCC(=O)O)NC(=O)OCc1ccccc1` (stereo partly specified), the Ki (Caspase-8) is reported as 540 nM, the Ki (Caspase-7) is reported as 1200 nM and the Ki (Caspase-2) is reported as 29000 nM. For the same compound, the Ki (Caspase-1) was 6.3 nM, the Ki (Caspase-6) was 550000 nM and the Ki (Caspase-3) was 840 nM.
